Two molecules from PubChem BioAssay AID621 (Sanford-Burnham Center for Chemical Genomics, 2007) can be followed below.

The assay addresses Bcl-2-related protein A1 (Mus musculus) (UniProt Q07440). The assay can be described thus: small-molecule antagonists of Bfl-1/BH3 interaction – biochemical, TR-FRET, mouse Bfl-1, confirmation (AID 621). Conditions: TR-FRET Bfl-1 BH3 peptide binding displacement.

Structures are written as SMILES.

Chain of Bcl-2-related protein A1 (Mus musculus) (Q07440 whole entry, looked up): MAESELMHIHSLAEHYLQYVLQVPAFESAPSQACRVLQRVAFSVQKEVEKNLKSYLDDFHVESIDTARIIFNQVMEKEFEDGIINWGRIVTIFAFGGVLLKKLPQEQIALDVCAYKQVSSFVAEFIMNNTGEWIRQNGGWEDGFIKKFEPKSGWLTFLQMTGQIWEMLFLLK

One may read the IC50 as the concentration that inhibits the measured activity by half. In the case of `Nc1ccc2ncccc2c1N`, the IC50 was 3.49 µM.

On to `CCn1c(SCC(=O)O)nc2sc3c(c2c1=O)CCC3`, for which the IC50 was 14.5 µM.
